10 compounds from ChEMBL document CHEMBL1201862, “PubChem BioAssay data set” (2004) can be followed below.

Structures are written as SMILES.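 A five-concentration, 48-hour dose response in 96-well plates underlies each endpoint, interpolated linearly between surrounding concentrations. The concentration for 50% growth inhibition is given as GI50.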 Activity calls are given as the source filed them. Rule as the data show it: active = GI50 up to about 1.1 µM and inactive = higher.

Usually GI50 stands for the concentration that inhibits growth by half.

Holding throughout (assay): DTP human tumour cell line panel, 48 h
Assay [1] has as its system 786-0.
In assay [2] the test system is A498.
In assay [3] the test system is A549.
The subject of assay [4] is ACHN.
The subject of assay [5] is CCRF-CEM.
The subject of assay [6] is HOP-62.
Assay [7] relates to LOX IMVI.
Assay [8] concerns MOLT-4.
The subject of assay [9] is NCI-H226.
The test system of assay [10] is NCI-H23.
Assay [11] concerns NCI/ADR-RES.
Assay [12] concerns OVCAR-8.
Assay [13] deals with PC-3.
Assay [14] has as its system SK-MEL-5.
Assay [15] concerns SK-OV-3.
Assay [16] has as its system SNB-19.
For assay [17], the system named is SW-620.
Assay [18] concerns T47D.
Assay [19] has as its system UACC-257.
In assay [20] the test system is UACC-62.

`O=C1c2ccccc2-n2c1nc1ccccc1c2=O` [TRYPTANTHRIN]: the GI50 in assay [1] is 28.2 µM (inactive); in assay [2], 18.2 µM (inactive); in assay [3], 2.59 µM (inactive); in assay [4] it was 2 µM (inactive); in assay [5] it was 9.08 µM (inactive); in assay [6], 12.1 µM (inactive). The GI50 is 4.44 µM (inactive) in assay [7]; 7.94 µM (inactive) in [8]; 30.9 µM (inactive) in [9]; 9.73 µM (inactive) in assay [10]; 22.3 µM (inactive) in assay [11]; 5.79 µM (inactive) in assay [12]. The GI50 is 0.649 µM (active) in assay [13]; 13.1 µM (inactive) in assay [14]; > 100 µM (inactive) in assay [15]; 25 µM (inactive) in assay [16]; 20.8 µM (inactive) in assay [17]; 8.87 µM (inactive) in assay [18]. Also, the GI50 in assay [19] was 3.02 µM (inactive); in [20], 3.69 µM (inactive).
For `O=C1C(=CNc2ccccc2Cl)C(=O)N(c2ccccc2)C(=O)N1c1ccccc1`, the GI50 in assay [1] was > 100 µM (inactive); in assay [2] it was 85.1 µM (inactive); in [3], > 100 µM (inactive); in [4] it was > 100 µM (inactive); in [5], > 100 µM (inactive); in [6] it was > 100 µM (inactive). Also, the GI50 in assay [7] was > 100 µM (inactive); in assay [8] it was > 100 µM (inactive); in [9], > 100 µM (inactive); in assay [10], > 100 µM (inactive); in assay [11] it was > 100 µM (inactive); in assay [12], 23.7 µM (inactive). The GI50 in assay [13], in assay [14], in [15], in assay [16], in assay [17] and in assay [18] was > 100 µM (inactive) in each case. The GI50 in [19] and in [20] was > 100 µM (inactive) throughout.
With `C[C@@]12[C@H]3CC[C@@H]1[C@H](O)C(=O)N2CC3`, the GI50 in assay [1], in assay [2], in [3], in assay [4], in assay [5] and in assay [6] was > 100 µM (inactive) throughout. Besides, the GI50 in [7], in [8], in assay [9], in assay [10], in assay [11] and in assay [12] was > 100 µM (inactive) each time. Further, the GI50 in [13], in assay [14], in assay [15], in [16], in assay [17] and in assay [18] was > 100 µM (inactive) each time. Also, the GI50 in assay [19] and in [20] was > 100 µM (inactive) each time.
As to `O=c1ssc(Cl)c1Cl`, the GI50 is > 4.7 µM (inactive) in assay [1]; > 10 µM (inactive) in assay [2]; > 10 µM (inactive) in [3]; > 7.26 µM (inactive) in [4]; 1.63 µM (inactive) in assay [5]; > 10 µM (inactive) in assay [6]. Further, the GI50 in [7] is > 10 µM (inactive); in assay [8], 2.39 µM (inactive); in assay [9], > 10 µM (inactive); in assay [10] it was > 10 µM (inactive); in [11] it was > 10 µM (inactive); in [12], > 10 µM (inactive). The GI50 was > 10 µM (inactive) in assay [13]; > 10 µM (inactive) in assay [14]; > 10 µM (inactive) in [15]; > 10 µM (inactive) in assay [16]; 3.55 µM (inactive) in assay [17]; > 10 µM (inactive) in assay [18]. In addition, the GI50 was > 7.19 µM (inactive) in assay [19] and > 10 µM (inactive) in assay [20].
As for `COc1ccc(N2C(=O)CC(c3c[nH]c4ncccc34)C2=O)cc1` (stereo not given), the GI50 is 22.3 µM (inactive) in [1]; 58.5 µM (inactive) in assay [2]; > 100 µM (inactive) in [3]; 21.2 µM (inactive) in [4]; 6.4 µM (inactive) in assay [5]; > 100 µM (inactive) in assay [6]. Moreover, the GI50 in assay [7] was > 100 µM (inactive); in [8], > 20.7 µM (inactive); in [9] it was > 100 µM (inactive); in [10] it was 24.2 µM (inactive); in assay [11], > 53 µM (inactive); in assay [12] it was 19.7 µM (inactive). In addition, the GI50 is 19.4 µM (inactive) in assay [13]; > 100 µM (inactive) in assay [14]; > 100 µM (inactive) in assay [15]; > 100 µM (inactive) in assay [16]; 18.2 µM (inactive) in [17]; 24.1 µM (inactive) in assay [18]. For the same compound, the GI50 is 19.3 µM (inactive) in assay [19] and > 50.9 µM (inactive) in [20].
Regarding `N#CC1(C#N)C(C#N)(C#N)C1(C#N)C(N)=O`, the GI50 in [1], in [2], in assay [3], in [4], in [5] and in [6] was > 100 µM (inactive) each time. Further, the GI50 in assay [7], in [8], in assay [9], in assay [10], in assay [11] and in [12] was > 100 µM (inactive) each time. Besides, the GI50 in assay [13], in [14], in assay [15], in assay [16], in assay [17] and in assay [18] was > 100 µM (inactive) each time. For the same compound, the GI50 in assay [19] and in assay [20] was > 100 µM (inactive) in each case.
With `O=C1c2cccc3cc4ccccc4c(c23)C(=O)N1CCCNCCNCCCN1C(=O)c2cccc3cc4ccccc4c(c23)C1=O`, the GI50 in assay [1] is 0.02 µM (active); in assay [2], 0.526 µM (active); in [3], 0.0133 µM (active); in assay [4] it was < 0.0227 µM (active); in assay [5], < 0.01 µM (active); in assay [6], 0.0203 µM (active). Further, the 50% growth inhibitory concentration (GI50) in assay [7] was < 0.01 µM (active); in [8], < 0.01 µM (active); in assay [9], 0.411 µM (active); in assay [10] it was 0.0509 µM (active); in assay [11] it was 0.314 µM (active); in assay [12] it was 0.0107 µM (active). The GI50 in [13] is 0.152 µM (active); in assay [14] it was 0.128 µM (active); in [15] it was 0.31 µM (active); in assay [16] it was 0.217 µM (active); in assay [17], < 0.01 µM (active); in assay [18], 0.421 µM (active). Also, the GI50 in assay [19] was 1.02 µM (active); in [20], 0.0575 µM (active).
Turning to `Nc1ncnc2c1ncn2[C@H]1CC[C@@H](NO)C1`, the GI50 in [1], in [2], in assay [3], in assay [4], in assay [5] and in assay [6] was > 100 µM (inactive) throughout. Besides, the GI50 in assay [7], in assay [8], in assay [9], in [10], in assay [11] and in assay [12] was > 100 µM (inactive) in each case. Also, the GI50 in [13], in assay [14], in assay [15], in assay [16], in [17] and in [18] was > 100 µM (inactive) each time. Besides, the GI50 in [19] and in assay [20] was > 100 µM (inactive) each time.
Regarding `O=C1c2ccccc2-c2c1c1ccccc1c(=O)n2-c1cccnc1`, the GI50 is 9.91 µM (inactive) in [1]; > 10 µM (inactive) in assay [2]; 11.5 µM (inactive) in assay [3]; 23.2 µM (inactive) in [4]; > 10 µM (inactive) in [5]; 12.1 µM (inactive) in assay [6]. Moreover, the GI50 in assay [7] was 32.1 µM (inactive); in assay [8], 3.78 µM (inactive); in [9], 61.5 µM (inactive); in assay [10] it was 37.8 µM (inactive); in assay [11], 45.8 µM (inactive); in [12], 31.8 µM (inactive). Besides, the GI50 is > 54.3 µM (inactive) in [13]; 73.5 µM (inactive) in assay [14]; 42.6 µM (inactive) in assay [15]; 24.6 µM (inactive) in [16]; 20.2 µM (inactive) in [17]; > 64.4 µM (inactive) in assay [18]. The GI50 was > 100 µM (inactive) in [19] and 32 µM (inactive) in assay [20].
As for `CC1=C2C(=O)O[C@@H](c3ccoc3)[C@]2(C)CCC1=O` [FRAXINELLONONE], the GI50 in [1], in assay [2], in [3], in assay [4], in assay [5] and in assay [6] was > 100 µM (inactive) in each case. In addition, the GI50 in assay [7], in [8], in assay [9], in [10], in assay [11] and in [12] was > 100 µM (inactive) each time. For the same compound, the GI50 in assay [13], in [14], in assay [15], in assay [16], in assay [17] and in assay [18] was > 100 µM (inactive) in each case. The GI50 in assay [19] and in assay [20] was > 100 µM (inactive) throughout.
